We go through one compound from PMC6956804, “Potent antibacterial activity of MSI-1 derived from the magainin 2 peptide against drug-resistant bacteria” (Theranostics, 2020).

For one data set, the system named is Helicobacterpylori SS1. In kind it is cell-based. Conditions: 4 h. As for the experimental part: Bacterial strains were purchased from the American Type Culture Collection (ATCC). All clinical strains were isolated from human clinical specimens by the Medical Laboratory Center of Zhongda Hospital (Nanjing, Jiangsu, China). Ndm-1, tem-1, ctx-m-1, shv-1 -carrying bacteria were constructed as previously described. The recombinant bacteria carrying drug-resistant genes were prepared in LB nutrient and induced by IPTG (1 mM) for 4 h before text. Other bacterial strains were respectively prepared in MHB and Columbia Blood Agar Base.
A standard micro-broth serial dilution assay was used to measure MIC of peptides. MIC was obtained by a microplate reader at 600 nm. MBC was determined as previously described.

Data set [1] concerns S. epidermidis (methicillin-resistant). Kind of data set: Time-killing assay. In kind it is cell-based. The following applies: 4× MIC, time-kill curve. As for the experimental part: (§1) Bacteria were incubated with MSI-1, penicillin G sodium salt, vancomycin or methicillin at 4× MIC. Samples were removed at 0, 0.5, 1, 2, 4, and 8 h for bacterial counts.
In data set [2] the test system is ndm-1-carrying recombinant E. coli. As to the kind of experiment: Time-killing assay. The following applies: 4× MIC, time-kill curve. The class given is cell-based. As for the experimental part:
as §1

Data set [3] concerns E. coli (penicillin resistant, levofloxacin sensitive). As to the kind of experiment: Resistance study, serial passages. Conditions: serial passages at 1/4× MIC; ratio of MIC to that of first-time exposure. The class given is cell-based. As for the experimental part:
(§2) P. aeruginosa and E. coli, which were penicillin resistant but levofloxacin sensitive strains, were exposed to MSI-1, polymyxin and levofloxacin for MIC determination. Resistance study was performed as described previously.

Data set [4] concerns P. aeruginosa (penicillin resistant, levofloxacin sensitive). As to the kind of experiment: Resistance study, serial passages. Conditions: serial passages at 1/4× MIC; ratio of MIC to that of first-time exposure. The class given is cell-based. As for the experimental part: as §2
A further data set has as its system C57BL/6 mice. Kind of data set: Acute toxicity in mice. The following applies: intraperitoneal, n=6/group. The class given is in vivo. As for the experimental part: C57BL/6 mice (n=6/group) were intraperitoneally injected with MSI-1 (0, 10, 20, 40, 80 and 100 mg/kg/body weight, respectively). Animals were inspected for adverse effects for 30 min, and survival was monitored for 12 h thereafter. The toxicity severity was classified as Malik U et al previously described.

Another data set can be described thus: pH stability. The class given is physicochemical. As for the experimental part:
MSI-1 at 2 mg/ml in PBS (pH 7.0), aqueous HCl (pH 3.0) and aqueous NaOH (pH 11.0) were incubated for 2, 4, 12 and 24 h at 37 °C. The remaining MSI-1 was measured by HPLC. In addition, the bacteria colonies survived 1× MIC of HCl or NaOH treated peptide were recorded simultaneously. That is, after 18 h coincubation, the absorbance which represents the bacteria colonies survived, was recorded by a microplate reader at 600 nm.

A further data set has as its system HaCaT cells. As to the kind of experiment: Wound scratch assay. In kind it is cell-based. The following applies: cell scratch assay. As for the experimental part:
To further investigate whether MSI-1 could protect from bacterial infection of the skin, mice were anesthetized with pentobarbital sodium (50 mg/kg, i.p) and shaved on the dorsal surfaces. The depilated skin was secured with 2-cm-diameter plastic containers that filled up with boiling water at contact time 10 s. Afterwards, a full-thickness wound (2 cm in diameter) was cut on the burned skin of each mouse. Penicillin-resistant E. coli suspension (100 µl, 1× 10^10 CFU/ml) was slowly inoculated over wound with a pipette tip, and a gentle stream of air was aimed over the inoculation site until skin appeared wet but absent of any standing volume from the inoculum suspension. Two hours later, vehicle (3% CMC-Na), MSI-1 or polymyxin, which was suspended in sterile CMC-Na (3%) in PBS at concentration of 10, 5, 2.5 mg/ml (MSI-1) or 5 mg/ml (polymyxin), was inoculated on the same area with a pipette tip, 1 ml/kg, once a day (n=15 per group). Mice were fed in cages individually to avoid cross infection and were treated daily for 7 consecutive days. At 3rd and 7th days, cutaneous wound healing and bacteria counts in skin lesion were measured. Moreover, 12 h after the last treatment, blood samples were collected from the retro-orbital venous plexus under anesthesia (pentobarbital sodium, 50 mg/kg). […] The contents of TNF-α and IL-6 in skin homogenates and serum were measured by ELISA. […]

The subject of data set [5] is penicillin-resistant E. coli. As to the kind of experiment: Bacteria growth curve and viability at sub-MICs. The class given is cell-based. As for the experimental part:
E. coli were mixed with sub-MICs MSI-1 and OD600 value was recorded every 2 h throughout 26 h of coincubation. In addition, bacteria were suspended with nutrient broth containing MSI-1 and subjected to routine MTT assay after 24 h incubation.

The conditions of data set [6]: 20% fresh mouse serum, turbidimetry.
Excerpt: At indicated time points, samples were denatured with equal volumes of 6 M urea and subjected to HPLC analysis or antibacterial activity evaluation.
For data set [7] the following is noted: 37 °C for up to 7 days, multigelation at -80 °C for 10 times or boiling at 100 °C for 1 h; HPLC and antibacterial activity.
Description: MSI-1 were placed at 37 °C for 7 days, repeated multigelation at -80 °C for 10 times or boiled at 100 °C for 1 h, and then subjected to HPLC analysis or antibacterial activity evaluation as above.
The next data set has as its system trypsin. As to the kind of experiment: in vitro. The following applies: pH 8.2.
The nature of the next data set: in vitro. The following applies: mouse, 20% fresh mouse serum.

Usually MBC stands for the smallest concentration meeting the test's criterion for killing. By MIC is commonly meant the least concentration at which growth counts as inhibited. The low end stands for a more susceptible organism, the high end for a less susceptible organism. By share remaining is commonly meant what is left of the initial amount, in per cent. A high value points to less turnover.

Converted amounts (≈) assume the structure as drawn. Read-outs that look alike come from different tables or passages of the source. Peptide text beside a SMILES is read from it.

Excerpt for trypsin: Aliquots of the mixture were extracted periodically and diluted with water/acetonitrile (3:2, v:v) containing 2% TFA for HPLC detection or for antibacterial activity assay [18].

In the data set with Helicobacterpylori SS1, `CC[C@H](C)[C@H](NC(=O)CN)C(=O)N[C@@H](Cc1c[nH]c2ccccc12)C(=O)N[C@@H](CCCCN)C(=O)N[C@@H](Cc1ccccc1)C(=O)N[C@@H](CC(C)C)C(=O)N[C@@H](CCCCN)C(=O)N[C@@H](CCCCN)C(=O)N[C@@H](C)C(=O)N[C@@H](CCCCN)C(=O)N[C@@H](CCCCN)C(=O)N[C@@H](Cc1ccccc1)C(=O)N[C@@H](Cc1c[nH]c2ccccc12)C(=O)N[C@@H](CCCCN)C(N)=O` [MSI-1] (H-GIWKFLKKAKKFWK-NH2) returned a minimum bactericidal concentration (MBC) of 64 µg/mL (≈ 35.4 µM) and an MIC of 32 µg/mL (≈ 17.7 µM). Further, in data set [1], the “reduction in CFU counts” value is on record as “approximately 5 log units” and the “time to thorough bacteria elimination” value is on record as at most 240 min. Further, in [2], the “time to thorough elimination of the bacteria” value is recorded as at most 4 h. Besides, the “relative MIC after 15 subcultures” value in data set [3] was “remained stable”. The “relative MIC after 15 subcultures” value in data set [4] is “remained stable”. In addition, the adverse events result with C57BL/6 mice (20 mg/kg) is on record as “no immediate adverse events”. Moreover, the “adverse effects at approximately 5 min post injection” value in the data set on C57BL/6 mice (dose of peptide above 40 mg/kg) is on record as “one mouse in the MS-1-treated group exhibited narrowing of the eyes”. Besides, the “percentage of remaining MSI-1” value in the data set “pH stability” (2 mg/ml in aqueous HCl (pH 3.0), aqueous NaOH (pH 11.0) or PBS (pH 7.0), 37 °C, within 24 h, HPLC) is reported as 99%-100%. The “effect of HCl (pH 3.0) and NaOH (pH 11.0) treatment on MIC against bacteria” value in the data set “pH stability” (treated peptide at 1× MIC, 18 h, 600 nm) is “did not affect the MIC”. The “migration of HaCaT cells” value with HaCaT cells was “could not promote the migration”. The “growth pattern of bacteria” value in data set [5] (1/4 and 1/8 MIC, OD600 over 26 h) was “not significantly altered”. The “cell viability vs control” value in [5] (sub-MICs, MTT, within 26 h, p>0.05) is on record as “no significant difference”. Further, the “inhibition rate against bacteria after serum incubation” value in [6] (0.5 h) worked out at 76.8%. In addition, the “inhibition rate against bacteria after serum incubation” value in data set [6] (2 h) came to 46.9%. Also, the thermal stability result in [7] was “maintained its structure and potent antimicrobial activity”. This compound returned a share remaining at 0.5 h in the data set on trypsin of under 10%. In “in vitro”, this compound gave a share remaining at 0.5 h, 1.6 mg/ml of 92.5% and a share remaining at 2 h, 1.6 mg/ml of 53.5%.
